{"source": "patent US11136613B2", "about": "“Antibacterial polypeptide libraries and methods for screening the same” (priority 2015, dated 2021)", "assay_type_in_all_cases": "cell-based", "key": {"[1]": {"test_system": "wild type E. coli strain W3110", "settings": "for cell lysis measured by decrease in culture optical density after IPTG induction: surface displayed peptide, E. coli W3110, IPTG added"}, "A. baumannii": {"test_system": "A. baumannii", "experiment": "Surface expression of 2× tether+cecropin P1 or HA in A. baumannii", "settings": "2× tether surface expression", "description": "FIG. 3: Surface expression of 2× tether+cecropin P1 or HA in A. baumannii. Addition of IPTG leads to rapid lysis of cecropin P1 containing A. baumannii.\nThe platform uses a plasmid with a broad host range origin of replication offering flexibility to identify antimicrobial peptides in many gram-negative bacteria. For example, A. baumannii is a gram-negative, hospital-associated pathogen that quickly acquires antibiotic resistance. […] The selective marker on this plasmid can be changed to allow its use in bacteria with different antibiotic resistant profiles."}, "E. coli": {"test_system": "E. coli", "experiment": "Co-culture of 2× tether+cecropin P1 expressing E. coli and empty vector E. coli, CFU plating and plasmid qPCR", "settings": "3 hours"}, "E. coli strain WD101": {"test_system": "E. coli strain WD101", "settings": "surface displayed peptide, 2× tether, 0.1 mM IPTG"}}, "data": [{"substance": "Dermaseptin", "values": [{"measurement": "cell lysis measured by decrease in culture optical density after IPTG induction", "setting": "[1]", "result": "same impact on cell growth"}]}, {"substance": "cecropin P1 (SWLSKTAKKLENSAKKRISEGIAIAIQGGPR; Cecropin-P1; UniProt P14661 14-44, looked up) [known antimicrobial peptide that lyses many gram-negative bacteria through disruption of the outer membrane; positive control]", "values": [{"measurement": "lysis of A. baumannii after addition of IPTG", "setting": "A. baumannii", "result": "rapid lysis"}, {"measurement": "difference in recoverable colony forming units between peptide expressing and control bacteria", "setting": "E. coli; co-culture in equal ratio, 0.1 mM IPTG", "result": "2-3 log"}, {"measurement": "decrease of ratio of peptide encoding plasmid to empty vector (qPCR)", "setting": "E. coli; co-culture, 0.1 mM IPTG induction", "result": "~50", "unit": "fold"}, {"measurement": "cell lysis measured by decrease in culture optical density after IPTG induction", "setting": "[1]", "result": "begin to lyse"}, {"measurement": "efficiency of cell lysis depending on tether", "setting": "[1]; two (2×) tandem low-complexity-region protein tethers, versus 0 and 1× tether, 0.1 mM IPTG", "result": "most efficient lysis"}, {"measurement": "cell lysis in resistant strain WD101 compared with parental strain W3110", "setting": "E. coli strain WD101", "result": "less cell lysis"}]}]}
